According to patent publication US10988730B2, “Sand worm lyophilisate and uses thereof” (HEMARINA, priority 2013, dated 2021):

Legend:
[1] = tested on: Lactococcus lactis SB50; test: Flask culture of Lactococcus lactis SB50, optical density; type: cell-based
Experimental: (§1) Sample Preparation • i) Flask culture: dissolution of the powders at 200 g/l then filtration of the supernatant and addition to the flasks. • ii) Bioreactor culture: direct addition to the reactors in a proportion of 1 g/l of powder before autoclaving.
Culture Conditions • i) Flask (100 ml, 0.5 and 11) culture:
(§2) The strain used is a strain of Lactococcus lactis SB50.
The tests were carried out overnight (16-18 h) at 30° C. with shaking at 180 rpm.
The composition of the culture medium for the strain is the following: glucose (1%), maltose (0.1%), yeast extract (2%) and minerals.
The culture conditions are the following: filling to 10% useful volume; a positive control with addition of hemin (hemoglobin of bovine origin) at 10 ppm final concentration is used.
(§3) The HEMARINA samples (powders in solution) were added post-sterilization after centrifugation. • ii) Bioreactor (11 useful volume) culture:
(§4) The optical density (OD) at 600 nm is measured for each culture.

[2] = tested on: Lactococcus lactis SB50; test: Bioreactor culture of Lactococcus lactis SB50 (OD, dry weight, NH4OH volume, viability); type: cell-based
Experimental: as §1, §2, §3
The tests were carried out overnight (15-16 h) at 30° C.
The composition of the culture medium for the strain is identical to that of the flasks, with an addition of 0.01% antifoam.
The culture conditions are the following: filling to 60% useful volume, pO2 regulated at 20% or 80% and pH regulated at 6.
1 g/l of powder are added directly to the culture medium before autoclaving.
as §4

[3] = overnight (15-16 h), 30° C., 1 g/l of powder

For hemin, the active concentration ([1]; equivalent to that of hemin) was “approximately 0.25 ppm”, the “OD at 600 nm” value ([1]; overnight (16-18 h), 30° C., 180 rpm, hemin 10 ppm final concentration) was 4.5 and the Dry weight [2, 3] was 3.4 g/L. The Viability [2, 3] was 5.03E+09 CFU/ml, the “OD at 600 nm” value ([2]; overnight (15-16 h), 30° C., pH 6, 1 g/l of powder) was 10.9 and the “Volume NH4OH (corresponding to production of lactic acid)” value ([2]; pH regulated at 6, 1 g/l of powder) was 12.3 mL.
